In ChEMBL document CHEMBL1212718, “Persistent signaling induced by FTY720-phosphate is mediated by internalized S1P1 receptors” (Nat Chem Biol, 2009):
Activity calls are given as the source filed them.

Key:
[1] = target: Sphingosine 1-phosphate receptor 1 (Homo sapiens) (UniProt P21453); assay: Agonist activity at human S1P1 receptor expressed in CHO cells assessed as inhibition of forskolin-stimulated cAMP formation pretreated at 1 uM for 1 hr measured after 5 hrs washout peroid; assay type: functional, cell-based
[2] = target: Sphingosine 1-phosphate receptor 1 (Homo sapiens) (UniProt P21453); assay: Induction of human S1P1 receptor internalization expressed in CHO cells at 1 uM after 60 mins; assay type: cell-based
[3] = target: Sphingosine 1-phosphate receptor 1 (Homo sapiens) (UniProt P21453); conditions: CHO, 1 uM
Description: Agonist activity at human S1P1 receptor expressed in CHO cells assessed as inhibition of forskolin-stimulated cAMP formation at 1 uM after 20 mins

[4] = target: Sphingosine 1-phosphate receptor 1 (Homo sapiens) (UniProt P21453); conditions: CHO, 1 uM; remark: listed apart in the source
Description: Agonist activity at human S1P1 receptor expressed in CHO cells assessed as inhibition of forskolin-stimulated cAMP formation at 1 uM after 60 mins

[5] = target: Sphingosine 1-phosphate receptor 1 (Homo sapiens) (UniProt P21453); assay: Induction of human S1P1 receptor internalization expressed in CHO cells pretreated at 1 uM for 1 hr measured after 5 hrs washout period; assay type: cell-based

Sequence of Sphingosine 1-phosphate receptor 1 (Homo sapiens) (P21453 whole entry): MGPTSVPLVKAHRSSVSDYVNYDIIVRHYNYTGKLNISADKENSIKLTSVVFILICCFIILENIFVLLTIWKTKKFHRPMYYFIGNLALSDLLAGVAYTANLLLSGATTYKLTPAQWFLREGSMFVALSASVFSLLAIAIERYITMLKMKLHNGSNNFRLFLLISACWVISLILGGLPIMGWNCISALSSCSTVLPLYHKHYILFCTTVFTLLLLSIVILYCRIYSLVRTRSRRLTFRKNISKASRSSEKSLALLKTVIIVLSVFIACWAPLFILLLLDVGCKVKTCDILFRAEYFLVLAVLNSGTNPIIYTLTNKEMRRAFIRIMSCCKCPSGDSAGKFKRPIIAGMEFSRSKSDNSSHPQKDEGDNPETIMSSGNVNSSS

CCCCCCCCCCCCC/C=C/[C@@H](O)[C@@H](N)COP(=O)(O)O
active: inhibition [1] | Activity [2] | inhibition [3] | inhibition [4] | Activity [5]
